For 31 molecules, EC50, IC50 and outcome results are on record in PubChem BioAssay AID179 (DTP/NCI, 2004).

Activity calls are given as the source filed them.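 Rule for the calls: active = compounds giving half or more protection of infected cells from virus-caused growth loss, again on retest; inactive = the rest.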

The assay concerns CEM cells HIV-1 protection, formazan growth assay. Nature of the assay: NCI AIDS Antiviral Assay. Particulars: for IC50: measured here: growth of uninfected CEM cells. The procedure, abridged: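 Steps: treat uninfected and HIV-1-infected human CEM cells at five drug levels; quantify growth by soluble formazan; retest any compound reaching 50% protection; classify actives from the retest.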

As a reminder, the EC50 is the midpoint of the concentration-response curve. As usually defined, the IC50 is the concentration that inhibits the measured activity by half. Higher therefore signals weaker potency. Consider `CCOP(=O)(OCC)C1C(CO)OC(n2ccc(=O)[nH]c2=O)C1O` (stereo not drawn), for which the EC50 was above 200 µM and the IC50 stood at 74.1 µM.

`NC(N)=NCCCC(N=c1c2ccccc2n(O)c2ccccc12)C(=O)O` (stereo not drawn): the outcome was inactive.

On to `O=c1n(-c2ccccc2)c(=O)n2n1C1C3C4C3C2C2(F)C4C12` (stereo not drawn), for which the EC50 was above 200 µM and the IC50 was above 200 µM.

Take `Cc1ccc(C2=C(c3ccccc3)C(Br)(c3ccc(C)cc3)C(c3ccccc3)=C2c2ccc(C)cc2)cc1`: the EC50 is above 2.51 µM and the IC50 was above 2.51 µM.

With `N#C/C(=C\c1ccc(Cl)cc1)c1nc(-c2cc3ccccc3oc2=O)cs1`, the EC50 is above 151 µM and the IC50 is above 151 µM.

For the molecule `O=C(O)C1CCC(c2ccc(F)cc2)=N1` (stereo not drawn), the EC50 is above 200 µM and the IC50 was above 200 µM.

For `CCOC(=O)C1(C/C=C/CCl)CCCC1=O` (stereo not drawn), the EC50 is above 200 µM and the IC50 stood at 10 µM.

For `CSCC1(O)CCCCC1`, the EC50 was above 200 µM and the concentration for half-maximal inhibition (IC50) was above 200 µM.

For the molecule `CN(C)C(=C1C(Br)=C(Br)C(Br)=C1Br)N(C)C`, the result was inactive.

On to `Clc1nc2n(c1/C=C/c1cccs1)CCS2`, for which the EC50 was above 200 µM and the IC50 came to 20.4 µM.

For `O=C1CC2C(=O)NC(=O)C2C(=O)N1` (stereo not drawn), the EC50 is above 1380 µM and the half-maximal inhibitory concentration (IC50) is above 1380 µM.

As to `O=C(O)/C(=C\c1cc2c(cc1[N+](=O)[O-])OCO2)c1cc2c(cc1Br)OCO2`, the EC50 is above 200 µM and the IC50 was determined as 110 µM.

For `CC(C1=C(O)c2ccccc2C(=O)C1=O)C1=C(O)c2ccccc2C(=O)C1=O`, the EC50 was above 200 µM and the IC50 was determined as 50.1 µM.

In the case of `C[N+](C)(C)CC1CCC(C[N+](C)(C)C)C1=NO` (stereo not drawn), the EC50 is above 501 µM and the IC50 was above 501 µM.

In the case of `CC(=O)Oc1c(-c2ccccc2)[nH]c2cc([N+](=O)[O-])c(/C(Cl)=C/c3ccccc3)cc12`, the EC50 is above 6.31 µM and the IC50 is above 6.31 µM.

Turning to `Cn1c(=O)nc2n(-c3ccc(Br)cc3)c3ccccc3nc-2c1=O`, the outcome was inactive.

Turning to `N#CC(C(=S)Nc1ccccc1)=C1Nc2ccccc2N1`, the EC50 is above 200 µM and the IC50 is above 200 µM.

As for `OCc1ccc(C2CC(c3ccco3)=NN2c2ccccc2)o1` (stereo not drawn), the EC50 was above 17 µM and the IC50 was above 17 µM.

Regarding `O=C(O)CCSc1nnc(COc2ccc(Cl)cc2)n1-c1ccccc1`, the EC50 was above 200 µM and the IC50 amounted to 67.6 µM.

With `CC(C)(Br)C(=O)C(Br)Br`, the EC50 was above 200 µM and the IC50 came out at 5.25 µM.

Consider `Cc1cc(O)c(/C=N/C(=S)NCCc2ccccc2)c(=O)o1`, for which the EC50 is above 200 µM and the IC50 was above 200 µM.

With `Cc1cn([C@@H]2O[C@H](CO[Si](C)(C)C(C)(C)C)[C@]3(O[C@H]3C(=O)NO)[C@H]2O[Si](C)(C)C(C)(C)C)c(=O)[nH]c1=O`, the EC50 was above 200 µM and the IC50 was found to be 1.17 µM.

As to `CCN(CC)c1ccc(C2N3CCCCC3[C@@H]3c4[nH]c5ccccc5c4CCN23)cc1` (stereo partly drawn), the EC50 was above 16.2 µM and the IC50 is above 16.2 µM.

For the molecule `N#CC(NNC(=O)Cc1ccccc1)c1ccccc1O` (stereo not drawn), the EC50 is above 129 µM and the IC50 came to 17 µM.

With `C=CCN1C(=O)CSC1=S`, the EC50 is above 288 µM and the IC50 is 13.5 µM.

With `O=C1CCCc2sccc21`, the EC50 was above 200 µM and the IC50 is above 200 µM.

Turning to `CC(=O)OC(C)CC[P+](c1ccccc1)(c1ccccc1)c1ccccc1` (stereo not drawn), the EC50 is above 200 µM and the IC50 was 75.9 µM.

For `CCOC(=O)NC1=NCC(C)(C)S1`, the result was inactive.

On to `O=c1[nH]c2ccccc2c(=O)c2ccccc12`, for which the EC50 was above 32.4 µM and the IC50 was above 32.4 µM.

On to `CC(C)N=c1sc(-c2ccccc2)c(C#N)c(=O)n1C(C)C`, for which the EC50 was above 75.9 µM and the IC50 is 55 µM.

Regarding `COc1ccc(NC(=O)CSc2nnc(-c3ccc(N=Cc4ccc(Cl)cc4)cc3)o2)cc1`, the EC50 is above 141 µM and the IC50 is 31.6 µM.
